Results: article PMC9873282, “Design, synthesis and evaluation of quinoline-O-carbamate derivatives as multifunctional agents for the treatment of Alzheimer’s disease” (Journal of Enzyme Inhibition and Medicinal Chemistry, 2023)
“And” between values parts separate entries of the source, which are not always exact repeats. Equal values may be shown once. Read-outs that look alike come from different tables or passages of the source.

Assays:
IL-1β = IL-1β production in LPS-stimulated BV-2 cells (ELISA); format: cell-based; settings: 1 µg/mL LPS 24 h
Experimental: (§1) Firstly, the cytotoxicity of compounds 3a, 3c, 3e, 3f, 3k, 3m and 3n were tested using CCK8 assay.
(§2) BV-2 cells (2 × 10^5 cells/well) were seeded in a 24-well cell culture plates. The cells were divided into blank control group, model group (1 µg/mL LPS), LPS + 2 µM compound group, LPS + 1 µM compound group. Each drug group was pre-treated with corresponding concentration of drug solution for 8 h. After 8 h, the culture medium was aspirated out. Except for the blank control group, which was added with DMEM medium, the other groups were stimulated with 1 µg/mL LPS for 24 h. Then cell supernatant was aspirated and centrifuged at 3000 rpm for 3 min. The content of NO in cell culture supernatant was determined by Griess method, and the levels of cytokines IL-6 and IL-1β in cell culture supernatant were determined by IL-6 ELISA kit and IL-1β ELISA kit, respectively.

eqBuChE = target: T1, eqBuChE (Equus caballus, UniProt P81908); experiment: biochemical; parameters: species or system equine; settings: for IC50: BuChE from equine serum; for SI = IC50 (AChE)/IC50 (BuChE): eeAChE/eqBuChE; for inhibition at 25 µM: read-out: eqBuChE inhibition rate
T1 construct: eqBuChE, from equine serum; purchased Sigma Aldrich; host or cells: equine serum (natural source)
Experimental: (§3) The inhibitory activities of the synthesised compounds against eeAChE (from electric eel) and eqBuChE (from equine serum) were tested by the modified Ellman’s method[26]^,[27]. […] The determination of AChE and BuChE inhibitory potency of the synthesised compounds were evaluated by Ellman assay, the detailed procedure referred to our previous work[26]^,[27].

NO = NO release in LPS-stimulated BV-2 cells (Griess method); format: cell-based; settings: 1 µg/mL LPS 24 h
Experimental: as §1, §2

BV-2 cells = experiment: Cytotoxicity on BV-2 cells (CCK8 assay); format: cell-based; settings: compounds at 2 µM
Experimental: as §1
BV-2 cells were cultured in DMEM containing 10% foetal bovine serum, 100 U/mL penicillin, 100 U/mL streptomycin, and 1% nonessential amino acid at 37 °C with 5% CO2.
BV-2 cells in logarithmic growth stage were digested and centrifuged, and then resuspended in DMEM medium containing 1% penicillin-streptomycin and 10% foetal bovine serum. The cells was adjusted to 1.2 × 10^4 cells/well, and then seeded evenly in 96-well cell culture plates. The cells were incubated for 36 h at 37 °C with 5% CO2. After incubation, the cells were added to different concentrations (10 and 2 µM) of tested compounds, and incubated for 24 h at 37 °C with 5% CO2. Then, 10 µL CCK-8 solution was added to each well, and incubated for another 1 h at 37 °C with 5% CO2. The OD values were tested at […]. The cell viability (%) = {(ODdrug−ODblank)}/{(ODcontrol−ODblank)} × 100%.

PC12 cells = experiment: Cytotoxicity on PC12 cells; format: cell-based; settings: at concentration below 40 µM
Experimental: (§4) The neuroprotective effect of compounds 3a, 3c, 3e, 3f, 3k, 3m, and 3n on Aβ25–35-induced PC12 cells injury were evaluated using CCK-8 assay. […] Furthermore, as shown in Figure 12(B), when PC12 cells were exposed to 25 µM Aβ25-35, the cell viability sharply declined to 57.3% (p < 0.01) compared with untreated group.
(§5) The PC12 cells during the logarithmic growth phase were digested and centrifuged with pancreatic enzyme solution, the cells were resuspended by adding the prepared media solution, and piped evenly with a pipette to seed in a 96-well cell culture plate (cell concentration adjusted to 2.0 × 10^4 cell·mL^−1). Each well was added 100 µL complete medium was added to each well and incubated at 37 °C and 5% CO2 for 24 h.

eeAChE = target: T2, eeAChE (Electrophorus electricus, UniProt O42275); experiment: biochemical; parameters: species or system electric eel
T2 construct: eeAChE, from the electric eel; purchased Sigma Aldrich; host or cells: electric eel (natural source)
Experimental: as §3

[1] = test system: Aβ25-35-induced PC12 cells injury; experiment: Neuroprotective effect on Aβ25-35-induced PC12 cells injury (CCK-8); format: cell-based; settings: 25 µM Aβ25-35; model cell viability 57.3%
Experimental: as §4
• Preparation of Aβ25-35 aggregation. Aβ25-35 was purchased from sigma. 1 mg Aβ25-35 was dissolved in 943 µL of sterilised deionised water to obtain 1 mM stock solution, aliquoted, –20 °C preservation. Removing the appropriate volume in a 48-well plate and incubated in a 37 °C incubator for two days to allow its ageing to accumulate and produce neurotoxicity. After aggregation was completed, the solution was diluted with PBS to get 25 µM solution of Aβ25-35 aggregation. • Neuroprotective effects of compounds on Aβ25-35-induced PC12 cells injury
as §5
After incubation for 24 h, PC12 cells were divided into blank group, control group, Aβ25-35 model group and tested compounds group (5, 10, 20 µM). Then the original medium was discarded, and 100 µL new complete medium were added to PC12 cells, and the tested compounds group was added to 100 µL complete medium containing different concentrations (5, 10, and 20 µM) of tested compounds, incubated for 2 h at 37 °C, 5% CO2 conditions. After incubation for 2 h, 10 µL Aβ25-35 solution was added to the tested compounds groups and model group (the final concentration of Aβ25-35 was 25 µM), and incubated for 24 h at 37 °C, 5% CO2 conditions, 10 µL CCK-8 was added to each well and further incubated for 1 h at 37 °C and 5% CO2. Finally, the OD value was measured at 450 nm using a microplate reader, and each concentration set three wells. The cell survival rate (%) was determined according to the following formula: cell viability (%) = {(ODdrug−ODblank)}/{(ODcontrol−ODblank)}.

IL-6 = IL-6 production in LPS-stimulated BV-2 cells (ELISA); format: cell-based; settings: 1 µM and 2 µM; 1 µg/mL LPS 24 h
Experimental: as §1, §2

hAChE = target: T3, hAChE (Homo sapiens, UniProt P22303); experiment: biochemical; settings: from human erythrocytes; read-out: IC50 ± SD hAChE
T3 construct: hAChE, from human erythrocytes AChE; purchased Sigma Aldrich; host or cells: human erythrocytes (natural source)
Experimental: (§6) Acetylcholinesterase (eeAChE, from the electric eel; hAChE, from human erythrocytes AChE), butyrylcholinesterase (eqBuChE, from equine serum; hBuChE, human serum BuChE), 5,5′-dithiobis-2-nitrobenzoic acid (Ellman’s reagent, DTNB), acetylthiocholine chloride (ATC), and butyrylthiocholine chloride (BTC) were purchased form Sigma Aldrich. The determination of AChE and BuChE inhibitory potency of the synthesised compounds were evaluated by Ellman assay, the detailed procedure referred to our previous work[26]^,[27].

hBuChE = target: T4, hBuChE (Homo sapiens, UniProt P06276); experiment: biochemical; settings: for IC50: from human serum, read-out: IC50 ± SD hBuChE; for SI = IC50 (AChE)/IC50 (BuChE): hAChE/hBuChE
T4 construct: hBuChE, human serum BuChE; purchased Sigma Aldrich; host or cells: human serum (natural source)
Experimental: as §6

[2] = AChE from electric eel, read-out: IC50 ± SD eeAChE

T4 sequence (P06276 29-602): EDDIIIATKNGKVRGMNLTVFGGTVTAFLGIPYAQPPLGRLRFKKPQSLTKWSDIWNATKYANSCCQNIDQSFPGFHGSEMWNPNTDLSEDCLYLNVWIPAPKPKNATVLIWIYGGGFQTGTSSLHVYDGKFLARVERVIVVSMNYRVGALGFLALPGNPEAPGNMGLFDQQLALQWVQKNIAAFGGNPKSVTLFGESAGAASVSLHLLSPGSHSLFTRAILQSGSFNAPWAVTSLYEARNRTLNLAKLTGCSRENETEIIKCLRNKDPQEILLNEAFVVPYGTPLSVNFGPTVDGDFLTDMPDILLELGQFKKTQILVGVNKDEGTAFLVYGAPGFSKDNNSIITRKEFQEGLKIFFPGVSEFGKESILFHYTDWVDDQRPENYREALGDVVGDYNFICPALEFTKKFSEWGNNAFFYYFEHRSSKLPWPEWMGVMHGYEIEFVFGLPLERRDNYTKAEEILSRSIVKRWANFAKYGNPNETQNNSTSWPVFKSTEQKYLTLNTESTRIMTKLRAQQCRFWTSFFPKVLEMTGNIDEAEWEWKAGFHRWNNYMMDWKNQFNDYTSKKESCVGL
T2 sequence (O42275 24-633): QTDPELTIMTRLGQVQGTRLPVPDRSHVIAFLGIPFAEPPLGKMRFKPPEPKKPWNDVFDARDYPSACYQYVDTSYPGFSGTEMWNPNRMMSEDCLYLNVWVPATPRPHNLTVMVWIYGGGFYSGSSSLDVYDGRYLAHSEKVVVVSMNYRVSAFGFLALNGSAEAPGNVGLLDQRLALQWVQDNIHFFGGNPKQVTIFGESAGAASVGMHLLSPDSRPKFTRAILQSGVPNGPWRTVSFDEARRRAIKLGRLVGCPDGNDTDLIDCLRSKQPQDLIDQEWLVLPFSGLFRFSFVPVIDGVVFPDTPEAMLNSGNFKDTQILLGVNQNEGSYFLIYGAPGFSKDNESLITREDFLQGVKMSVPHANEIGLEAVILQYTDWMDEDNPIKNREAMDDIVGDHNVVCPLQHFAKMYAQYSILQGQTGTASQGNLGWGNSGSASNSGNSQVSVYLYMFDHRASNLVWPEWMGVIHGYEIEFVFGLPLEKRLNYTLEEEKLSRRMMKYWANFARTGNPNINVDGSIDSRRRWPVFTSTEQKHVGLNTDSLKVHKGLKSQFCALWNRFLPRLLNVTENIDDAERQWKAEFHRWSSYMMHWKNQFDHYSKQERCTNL
T1 sequence (P81908 whole entry): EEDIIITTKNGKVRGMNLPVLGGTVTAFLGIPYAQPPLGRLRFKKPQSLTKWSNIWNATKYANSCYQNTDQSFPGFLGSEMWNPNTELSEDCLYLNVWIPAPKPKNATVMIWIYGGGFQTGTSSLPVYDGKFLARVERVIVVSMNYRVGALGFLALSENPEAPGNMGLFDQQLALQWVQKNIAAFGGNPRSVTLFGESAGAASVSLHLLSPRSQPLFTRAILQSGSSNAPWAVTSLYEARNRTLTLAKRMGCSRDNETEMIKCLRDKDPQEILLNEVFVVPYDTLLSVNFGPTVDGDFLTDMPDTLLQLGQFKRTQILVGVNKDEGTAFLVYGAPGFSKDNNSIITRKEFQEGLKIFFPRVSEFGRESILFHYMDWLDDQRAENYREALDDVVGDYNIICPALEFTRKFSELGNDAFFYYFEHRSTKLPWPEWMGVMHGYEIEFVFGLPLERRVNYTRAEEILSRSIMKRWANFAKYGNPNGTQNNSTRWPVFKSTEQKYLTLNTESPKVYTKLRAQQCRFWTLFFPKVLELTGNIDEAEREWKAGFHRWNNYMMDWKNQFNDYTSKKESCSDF
T3 sequence (P22303 32-617 isoform P22303-2 limits assumed): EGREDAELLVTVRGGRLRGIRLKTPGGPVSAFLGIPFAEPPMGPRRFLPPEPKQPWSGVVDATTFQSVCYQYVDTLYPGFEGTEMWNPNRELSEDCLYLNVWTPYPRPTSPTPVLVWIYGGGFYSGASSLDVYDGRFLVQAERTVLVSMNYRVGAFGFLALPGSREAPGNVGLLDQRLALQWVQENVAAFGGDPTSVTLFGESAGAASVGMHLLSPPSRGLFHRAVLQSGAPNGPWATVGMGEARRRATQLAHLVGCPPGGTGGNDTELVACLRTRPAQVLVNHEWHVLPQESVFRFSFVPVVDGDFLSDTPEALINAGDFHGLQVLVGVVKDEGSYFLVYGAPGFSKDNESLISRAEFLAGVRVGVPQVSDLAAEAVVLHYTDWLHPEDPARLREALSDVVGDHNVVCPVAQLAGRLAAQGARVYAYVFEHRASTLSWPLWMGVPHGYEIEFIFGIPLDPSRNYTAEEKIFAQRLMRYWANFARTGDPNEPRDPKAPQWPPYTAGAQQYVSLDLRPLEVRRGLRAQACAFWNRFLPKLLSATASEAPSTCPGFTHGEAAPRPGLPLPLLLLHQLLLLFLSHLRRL

SMILES | IC50 (eqBuChE; IC50 ± SD eqBuChE) | SI = IC50 (AChE)/IC50 (BuChE) (eqBuChE) | IC50 (eeAChE) [µM] | IC50 (eqBuChE; read-out: IC50 ± SD eqBuChE) | IC50 (eeAChE; [2]) [µM] | also measured
CN(C)C(=O)Oc1ccnc2ccccc12 [Compound 3a, Quinolin-4-yl dimethylcarbamate] | 2.83 µM and 2.8 µM | 3.8 | 10.8 ± 0.33 | – | – | levels of IL-1β compared with model group (IL-1β): did not obviously decrease; release volume of NO (NO): significantly decreased; cell viability of BV-2 cells (BV-2 cells): did not show obvious change; cytotoxicity on PC12 cells (PC12 cells): did not show any cytotoxicity; neuroprotective effect on Aβ25-35-induced PC12 cells injury [1]: did not show significant neuroprotective effects; levels of IL-6 compared with model group (IL-6): significantly decreased
CCN(CC)C(=O)Oc1ccnc2ccccc12 [Compound 3b, Quinolin-4-yl diethylcarbamate] | – | 11.5 | – | 1.06 µM and 1.1 µM | 12.7 ± 0.13 | IC50 (hAChE): 30.2 ± 0.61 µM; IC50 (hBuChE): 5.39 µM and 5.4 µM; SI = IC50 (AChE)/IC50 (BuChE) (hBuChE): 5.6
CCN(C)C(=O)Oc1ccnc2ccccc12 [Compound 3c, Quinolin-4-yl ethyl(methyl)carbamate] | 1.92 µM and 1.9 µM | 6.9 | 13.2 ± 0.51 | – | – | levels of IL-1β compared with model group (IL-1β): did not obviously decrease; release volume of NO (NO): significantly decreased; cell viability of BV-2 cells (BV-2 cells): did not show obvious change; cytotoxicity on PC12 cells (PC12 cells): did not show any cytotoxicity; neuroprotective effect on Aβ25-35-induced PC12 cells injury [1]: did not show significant neuroprotective effects; levels of IL-6 compared with model group (IL-6): significantly decreased
O=C(Oc1ccnc2ccccc12)N1CCOCC1 [Compound 3d, Quinolin-4-yl morpholine-4-carboxylate] | – | 18.0 | – | 0.87 ± 0.05 µM | 15.7 ± 0.27 | IC50 (hAChE): 26.9 ± 0.74 µM; IC50 (hBuChE): 9.46 µM and 9.5 µM; SI = IC50 (AChE)/IC50 (BuChE) (hBuChE): 2.8
CCN(C)C(=O)Oc1cccc2ncccc12 [Compound 3g, Quinolin-5-yl ethyl(methyl)carbamate] | 2.23 µM and 2.2 µM | 1.4 | 3.2 ± 0.05 | – | – | –
O=C(Oc1cccc2ncccc12)N1CCOCC1 [Compound 3h, Quinolin-5-yl morpholine-4-carboxylate] | – | 7.2 | – | 1.76 µM and 1.8 µM | 12.9 ± 0.07 | –
CN(C)C(=O)Oc1ccc2ncccc2c1 [Compound 3i, Quinolin-6-yl dimethylcarbamate] | – | – | 14.1 ± 0.43 | – | – | inhibition at 25 µM (eqBuChE): 13.8 ± 0.61%
CCN(CC)C(=O)Oc1ccc2ncccc2c1 [Compound 3j, Quinolin-6-yl diethylcarbamate] | – | – | – | – | 12.2 ± 0.19 | inhibition at 25 µM (eqBuChE; at 25 μM of compounds): 30.7 ± 1.26%
